Entries after “also recorded” stand apart in the source; their conditions may differ. Peptide text beside a SMILES is read from it.

From patent publication US20180325893A1, “SUBACUTE ADMINISTRATION OF NMDA MODULATORS ALONE OR IN COMBINATION” (Northwestern University, priority 2015, published 2018) come the findings set out here.

Common to all, as to type: in vivo
The subject of assay [1] is male C57BL/6J mice. Kind of assay: NOR in subchronic PCP-treated mice (Example 2). As to conditions: for preference for novel versus familiar object, retention trial: Example 2. As for the experimental part: (§1) Three cohorts of male C57BL/6J mice (2½-3 month old, Jackson, Mass., USA), N=40, 45, and 48 were used in Examples 1, 2, 3 respectively. Mice were group housed (five/cage) in a controlled environment held at 21±2° C. and 50±15% relative humidity with a 14:10 h light-dark period (lights on: 05:00 am). All experiments were conducted during the light phase. Food and water were available ad libitum. The mice were habituated to the colony upon arrival for a week, during which time, they were not handled. All experiments were conducted in accordance with Institutional Animal Care and Use Committee of Northwestern University, Chicago.
(§2) Rapastinel was obtained from SAI Life Sciences (India). PCP was a generous gift from National Institute of Drug Abuse. Ketamine was purchased from Sigma Aldrich (St. Louis, Mo.). Lurasidone was provided by Sumitomo Dainippon Pharma Co., Ltd. (Osaka, Japan). Rapastinel, PCP, and ketamine were dissolved in 0.9% sterile saline (Sal). PCP and ketamine were administered intraperitoneally (ip), at a volume of 10 mL/kg body weight. Rapastinel was given intravenously (iv). The dose of rapastinel (1.0 mg/kg) was chosen because it produced optimal enhancement in learning in both young adult and aged rats and in a trace eye blink conditioning task in rabbits. […] The dose for lurasidone (0.1 mg/kg) was chosen based on prior NOR studies in C57BL/6J mice which determined the effective dose of lurasidone to restore NOR in subchronic PCP-treated mice.
(§3) For acute drug treatments, rapastinel (1.0 mg/kg, iv), lurasidone (0.1 mg/kg, i.p.) or ketamine (30 mg/kg, ip) were administered 30 min prior to the acquisition trial of the NOR task (described below) to the subchronic ketamine or subchronic PCP-treated animals. For subchronic drug treatments, 7-10 mice/cohort were randomly assigned to Sal, PCP, or ketamine. The Sal-treated mice received 0.9% NaCl; the drug treatment groups received either PCP (10 mg/kg; ip), or ketamine (30 mg/kg; ip) twice daily for 7 days. This was followed by a 7 day washout period during which time, mice were left undisturbed in the home cage until initiation of habituation (see below).
NOR testing in mice was slightly modified from Hashimoto et al (Hashimoto K.; Fujita Y.; Shimizu E.; Iyo M. European Journal of Pharmacology 2005, 519:114-7). […] Similar observations were made when large objects were used. […] It was observed that C57BL/6J mice explored less when the duration of trials were 3 or 5. […] The NOR apparatus consisted of an open box made of Plexiglas (52 cm L; 52 cm W; 31 cm H) with white walls and a solid floor. The box was positioned approximately 30 cm above the floor, centered on a table such that the overhead lights could not provide a spatial cue. One day after the 7 day washout from subchronic drug treatment or Sal, mice were habituated to the empty NOR arena, as a group, for one hour, on each of three days prior to the acquisition trial. During the acquisition trial, the mice were allowed to explore two identical objects (e.g. A1 and A2) for 10 min. This was followed by a 24-hour inter-trial interval, after which the mice were returned to the home cage. […] Behavior was recorded on video for blind scoring of object exploration. […] The discrimination index (DI) [(time spent exploring the novel object—time spent exploring the familiar object)/total exploration time] was then calculated for retention trials. […]

Assay [2] has as its system male C57BL/6J mice. Kind of assay: Novel object recognition (NOR), acute drug treatment / acute ketamine-induced deficit (Example 1). Particulars: for discrimination index (DI) / NOR deficit: Example 1, FIG. 1; for preference for novel versus familiar object (exploration time), retention trial: Example 1. Here is the method:
as §1, §2, §3
(§4) NOR testing in mice was slightly modified from Hashimoto et al (Hashimoto K.; Fujita Y.; Shimizu E.; Iyo M. European Journal of Pharmacology 2005, 519:114-7). […] Similar observations were made when large objects were used. […] It was observed that C57BL/6J mice explored less when the duration of trials were 3 or 5. […] The NOR apparatus consisted of an open box made of Plexiglas (52 cm L; 52 cm W; 31 cm H) with white walls and a solid floor. The box was positioned approximately 30 cm above the floor, centered on a table such that the overhead lights could not provide a spatial cue. One day after the 7 day washout from subchronic drug treatment or Sal, mice were habituated to the empty NOR arena, as a group, for one hour, on each of three days prior to the acquisition trial. During the acquisition trial, the mice were allowed to explore two identical objects (e.g. A1 and A2) for 10 min. This was followed by a 24-hour inter-trial interval, after which the mice were returned to the home cage. During the retention trial, the mice were allowed to explore the familiar object (A) from the acquisition trial and a novel object (e.g. B). The location of the novel object in the retention trial was randomly assigned for each mouse tested using a pseudorandom schedule. […] Also, to avoid bias or olfactory trails, objects were used in triplicates, i.e. that the same object that was used in the acquisition trial was not presented in retention trial. Behavior was recorded on video for blind scoring of object exploration. Object exploration was defined as an animal licking, sniffing, or touching the object with the forepaws while sniffing. […] The discrimination index (DI) [(time spent exploring the novel object—time spent exploring the familiar object)/total exploration time] was then calculated for retention trials. […]

Assay [3] relates to male C57BL/6J mice. The assay can be described thus: NOR in subchronic ketamine-treated mice (Examples 2 and 3). As for the experimental part:
as §1, §2, §3, §4

[4] abbreviates: acute drug plus sal, rapastinel 1.0 mg/kg, ketamine 30 mg/kg.
Where [5] appears, read: acute drug plus sal, 30 min prior to acquisition trial, rapastinel 1.0 mg/kg iv, ketamine 30 mg/kg ip.

With `c1ccc(C2(N3CCCCC3)CCCCC2)cc1` [PCP, reference compound], in assay [1] (Example 2, FIG. 2, subchronic PCP alone, compared to sal plus sal), the “discrimination index (DI)” value is “significantly reduced”. Moreover, in assay [1] (subchronic PCP 10 mg/kg ip twice daily 7 days, 7 day washout), the “preference for novel versus familiar object, retention trial” value was “abolished”.
On to `CNC1(c2ccccc2Cl)CCCCC1=O` (stereo not drawn) [ketamine, Ketamine, reference compound], for which the “discrimination index (DI) / NOR deficit” value in assay [2] (setting [4]) was “induced a significant NOR deficit; also recorded: significantly reduced”. For the same molecule, the “preference for novel versus familiar object (exploration time), retention trial” value in assay [2] (setting [5]) was “abolished”. The “discrimination index (DI)” value in assay [3] (Example 2, FIG. 2, subchronic ketamine alone, compared to sal plus sal) is “significantly reduced”; in assay [3] (Example 3, FIG. 3, subchronic ketamine plus sal, compared to saline controls), “significant reductions in the DI”. Also, the “preference for novel versus familiar object, retention trial” value in assay [3] (Example 2, subchronic ketamine 30 mg/kg ip twice daily 7 days, 7 day washout) is listed as “abolished”; in assay [3] (Example 3, subchronic ketamine alone), “abolished”.
Take `CC(O)C(N)C(=O)N1CCCC1C(=O)N1CCCC1C(=O)NC(C(N)=O)C(C)O` (stereo not drawn) [rapastinel, Rapastinel] (H-TPPT-NH2; configuration not given here): the “discrimination index (DI) / NOR deficit” value in assay [2] (setting [4]) was “did not induce NOR deficit”; in assay [2] (rapastinel 1.0 mg/kg plus acute ketamine 30 mg/kg), “significantly prevented the acute ketamine-induced decrease in DI”; in assay [2] (rapastinel 1.0 mg/kg plus acute ketamine 30 mg/kg, listed as Rap), “significantly prevented the ket-induced NOR deficit”; in assay [1] (Example 2, FIG. 2, acute rapastinel 1.0 mg/kg in subchronic PCP-treated mice), “significantly increased”; in assay [1] (Example 2, FIG. 2, acute rapastinel 1.0 mg/kg in subchronic PCP-treated mice, listed as rap), “significantly reversed”; in assay [3] (Example 2, FIG. 2, acute rapastinel 1.0 mg/kg in subchronic ketamine-treated mice), “significantly increased”. Moreover, the “discrimination index (DI) / NOR deficit” value in assay [3] (Example 2, FIG. 2, acute rapastinel 1.0 mg/kg in subchronic ketamine-treated mice, listed as rap) is reported as “significantly reversed”; in assay [3] (Example 3, FIG. 3, subchronic ketamine-treated mice given sub-effective dose rapastinel 0.3 mg/kg and/or sub-effective dose lurasidone 0.1 mg/kg), “neither drug above at these doses was effective; also recorded: significant reductions in the DI”. In addition, the figures for the “preference for novel versus familiar object (exploration time), retention trial” value in assay [2] (setting [5]) and in assay [2] (rapastinel 1.0 mg/kg prior to acute ketamine 30 mg/kg) were “showed a clear preference for the novel compared to the familiar object” and “showed clear preference for the novel compared to the familiar object”, respectively. In addition, the “preference for novel versus familiar object, retention trial” value in assay [1] (acute rapastinel 1.0 mg/kg in subchronic PCP-treated mice) is reported as “explored the novel object significantly more compared to the familiar object”; in assay [3] (Example 2, acute rapastinel 1.0 mg/kg in subchronic ketamine-treated mice), “explored the novel object significantly more compared to the familiar object”; in assay [3] (Example 3, subchronic ketamine-treated mice given sub-effective dose rapastinel 0.3 mg/kg and/or sub-effective dose lurasidone 0.1 mg/kg), “abolished”.
